Data as given in patent US20120269781A1, “METHOD FOR PROLIFERATING HAIR FOLLICLE STEM CELLS” (RNL BIO CO., LTD., priority 2009, published 2012).

Experiments:
follicular stem cells [1] = test: Proliferation ability of follicular stem cells at various concentrations of ROCK inhibitor; format: cell-based, human; details: M199/F-12 medium, days 2-6
Procedure: In order to examine the proliferation ability of follicular stem cells at various concentrations of the ROCK inhibitor, the ROCK inhibitor was added at various concentrations to a M199/F-12 medium containing ITS+ premix, EGF, bFGF and antibiotic/antimycotic mixture, and the follicular stem cells obtained in Example 1 were cultured in the medium. Specifically, 10 μM of the ROCK inhibitor was added to M199/F-12 used in Example 1, and the P1 follicular stem cells were cultured in the M199/F-12 medium and collected by TrypLE-Express treatment. Then, the cells were added to each well of a 6-well plate at a density of 7.70×10^5 cells, and 2 ml of M199/F-12 was added to each well of the 6-well plate. The cell suspension was plated in each well of a 6-well plate, and then the ROCK inhibitor Y-27632 was added at concentrations of 10 nM, 100 nM, 1 μM, 10 μM and 100 μM to the 5 wells (excluding the well for a control group) of the 6-well plate, respectively, followed by culture of the follicular stem cells. The medium was replaced at 2-day intervals during culture of the cells, and the cells were photographed 2, 3, 4, 5 and 6 days after the start of cell culture.

follicular stem cells [2] = test: Culture of follicular stem cells in 9 kinds of media with or without ROCK inhibitor; format: cell-based, human; details: 10 μM
Procedure: Then, the follicular stem cells were added to each well of a 12-well plate, and 1 ml of each of control groups and test groups for 9 kinds of media containing ITS+ (insulin, transferrine, selenium) premix, EGF, bFGF and an antibiotic/antimycotic mixture was added to each well of the 12-well plate. 10 μl (10 μM) of the ROCK inhibitor Y-27632 was added to each of the test groups, and the cells were cultured.
At days 2, 3 and 4 after the start of culture, the state of proliferation of the follicular stem cells in each of the media was observed, and the results of the observation are shown in FIGS. 1 to 5.

CC(N)C1CCC(C(=O)Nc2ccncc2)CC1 (stereo not drawn) [ROCK inhibitor, Y-27632]
proliferation of the cells versus cells not treated (follicular stem cells [1]; 100 nM or less): did not significantly differ | morphology / differentiation of the cells (follicular stem cells [1]; 1 μM or 100 μM): morphological change or differentiation of the cells appeared | proliferation of the cells (follicular stem cells [1]; 1 μM or 100 μM): enhanced | effect on the proliferation of the follicular stem cells compared to the control groups (follicular stem cells [2]; in M199/F12, MEM-alpha, DMEM L/G, DMEM H/G, MCDB 131 and IMEM medium): good effects | effect on the proliferation of the follicular stem cells compared to the control groups (follicular stem cells [2]; in M199/F12 medium and MEM-alpha medium): most excellent effects | effect on increase in the number and on the viability of follicular stem cells (follicular stem cells [2]; specific media containing the ROCK inhibitor): excellent effects
